The source of these data is patent US6541450B1, “Parathyroid hormone analogues for the treatment of osteoporosis” (National Research Council of Canada, priority 1994, dated 2003).

Series [1] deals with anesthetized female Sprague-Dawley rats. The experiment in a line: Hypotensive effect, tail artery pressure in anaesthetized rats.
Method: Female Sprague-Dawley rats (weighing over 290 g) were anaesthetized with intraperitoneally injected sodium pentobarbital (65 mg/kg body weight). Rectal temperature was monitored with a YS1402 thermistor (Yellow Springs Instrument Co., Inc. Yellow Springs, Ohio) and maintained between 36.0 and 38.5° C. throughout the experiment. Ear pinna temperature was also monitored using a YSi banjo thermistor. The tail artery was exposed to cannulated with a Jelco 25-gIV catheter (Johnson and Johnson Medical Inc., Arlington, Tex.) and connected to a Statham pressure transducer, the signals from which were recorded digitally with a Biopac Systems MP100 Monitor (Harvard Instruments, Saint Laurent, QC, Canada). For intravenous injection of PTH or one of its fragments, a femoral vein was also exposed. After surgery, the rat was allowed to stabilize for 8 min after which PTH or one of its fragments (dissolved in acidified saline containing 0.001 N HCl) was injected into the femoral vein or under the skin of the abdomen. Data were collected for 12 min after intravenous injection or for 22 min after subcutaneous injection.
The target of series [2] is T1, adenylyl cyclase, ROS 17/2 cells (Rattus norvegicus, UniProt P25961).
T1 sequence (P25961 27-591): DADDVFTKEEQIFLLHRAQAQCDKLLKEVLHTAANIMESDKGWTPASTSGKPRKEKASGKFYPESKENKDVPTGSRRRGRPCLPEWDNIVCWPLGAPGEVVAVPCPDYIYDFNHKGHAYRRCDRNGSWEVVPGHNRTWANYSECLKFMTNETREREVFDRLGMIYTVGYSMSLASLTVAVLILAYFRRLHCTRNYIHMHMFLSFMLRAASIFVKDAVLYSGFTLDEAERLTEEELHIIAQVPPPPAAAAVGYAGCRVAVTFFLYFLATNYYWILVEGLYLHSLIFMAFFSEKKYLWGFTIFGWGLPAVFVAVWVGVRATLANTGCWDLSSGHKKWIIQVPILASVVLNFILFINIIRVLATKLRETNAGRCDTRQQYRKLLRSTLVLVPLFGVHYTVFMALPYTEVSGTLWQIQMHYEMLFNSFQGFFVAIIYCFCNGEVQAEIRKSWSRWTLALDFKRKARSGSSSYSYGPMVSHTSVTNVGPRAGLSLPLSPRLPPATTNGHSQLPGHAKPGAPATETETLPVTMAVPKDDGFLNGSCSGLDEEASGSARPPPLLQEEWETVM
The experiment in a line: Adenylyl cyclase stimulation, [3H]-cyclic AMP production in ROS 17/2 cells. Type of series: cell-based.

For series [3], the target named is T2, PTH receptor (rat (ROS 17/2 rat osteosarcoma cell …, UniProt P25961)). The series is described as follows: cell-based or functional assay.
In series [4] the target is T2, PTH receptor. The series is described as follows: cell-based or functional assay. The source holds these as a separate data set.
Setting [5] is: ROS 17/2 cells, concentration for half-maximal increase in AC activity, read-out: Adenylyl Cyclase (EC50).

Read-outs that look alike come from different tables or passages of the source. Where a SMILES comes first, the peptide text is derived from it. Bridges are numbered along the chain shown (N, C = ends). Where no end group is shown, it is not given here.

As for `CC[C@H](C)[C@H](NC(=O)[C@H](CCC(=O)O)NC(=O)[C@H](CO)NC(=O)[C@@H](NC(=O)[C@@H](N)CO)C(C)C)C(=O)N[C@@H](CCC(N)=O)C(=O)N[C@@H](CC(C)C)C(=O)N[C@@H](CCSC)C(=O)N[C@@H](Cc1c[nH]cn1)C(=O)N[C@@H](CC(N)=O)C(=O)N[C@@H](CC(C)C)C(=O)NCC(=O)N[C@@H](CCCCN)C(=O)N[C@@H](Cc1c[nH]cn1)C(=O)N[C@@H](CC(C)C)C(=O)N[C@@H](CC(N)=O)C(=O)N[C@@H](CO)C(=O)N[C@@H](CCSC)C(=O)N[C@@H](CCC(=O)O)C(=O)N[C@@H](CCCNC(=N)N)C(=O)N[C@H](C(=O)N[C@@H](CCC(=O)O)C(=O)N[C@@H](Cc1c[nH]c2ccccc12)C(=O)N[C@@H](CC(C)C)C(=O)N[C@@H](CCCNC(=N)N)C(=O)N[C@H]1CCCCNC(=O)C[C@@H](C(=O)N[C@H](C(N)=O)C(C)C)NC(=O)[C@H](CCC(N)=O)NC(=O)[C@H](CC(C)C)NC(=O)[C@H](CC(C)C)NC1=O)C(C)C` [compound 4, [Leu^27]cyclo(Lys^26-Asp^30)-hPTH-(1-31)-NH2] (H-SVSEIQLMHNLGKHLNSMERVEWLRKLLQDV-NH2; lactam 26-30; N-terminus assumed), the “hypotensive action, in words” value in series [1] (subcutaneous injection) is “enhanced hypotensive effects”. Further, the EC50 (usually the midpoint of the concentration-response curve) came out at 3 nM in series [2] (setting [5]) and 17 ± 3.3 nM in series [2] (ROS cell line, read-out: EC50, AC-stimulating activity).
Consider `CC[C@H](C)[C@H](NC(=O)[C@H](CCC(=O)O)NC(=O)[C@H](CO)NC(=O)[C@@H](NC(=O)[C@@H](N)CO)C(C)C)C(=O)N[C@@H](CCC(N)=O)C(=O)N[C@@H](CC(C)C)C(=O)N[C@@H](CCSC)C(=O)N[C@@H](Cc1c[nH]cn1)C(=O)N[C@@H](CC(N)=O)C(=O)N[C@@H](CC(C)C)C(=O)NCC(=O)N[C@@H](CCCCN)C(=O)N[C@@H](Cc1c[nH]cn1)C(=O)N[C@@H](CC(C)C)C(=O)N[C@@H](CC(N)=O)C(=O)N[C@@H](CO)C(=O)N[C@@H](CCSC)C(=O)N[C@@H](CCC(=O)O)C(=O)N[C@@H](CCCN=C(N)N)C(=O)N[C@H](C(=O)N[C@H]1CCC(=O)NCCCC[C@@H](C(=O)N[C@@H](CC(C)C)C(=O)N[C@@H](CC(C)C)C(=O)N[C@@H](CCC(N)=O)C(=O)N[C@@H](CC(=O)O)C(N)=O)NC(=O)[C@H](CCCN=C(N)N)NC(=O)[C@H](CC(C)C)NC(=O)[C@H](Cc2c[nH]c3ccccc23)NC1=O)C(C)C` [compound 8, [Leu^27]cyclo(Glu^22Lys^26)-hPTH-(1-30)-NH2] (H-SVSEIQLMHNLGKHLNSMERVEWLRKLLQD-NH2; lactam 22-26), for which the “rate of transport of subcutaneously injected peptide to the vascular system” value in series [1] (subcutaneous, 0.8 nmol/100 g of body weight) is “significantly (p<0.05) reduced rates of transport”. The half-maximal effective concentration (EC50) in series [2] (setting [5]) was determined as 20 nM.
In the case of `CC[C@H](C)[C@H](NC(=O)[C@H](CCC(=O)O)NC(=O)[C@H](CO)NC(=O)[C@@H](NC(=O)[C@@H](N)CO)C(C)C)C(=O)N[C@@H](CCC(N)=O)C(=O)N[C@@H](CC(C)C)C(=O)N[C@@H](CCSC)C(=O)N[C@@H](Cc1c[nH]cn1)C(=O)N[C@@H](CC(N)=O)C(=O)N[C@@H](CC(C)C)C(=O)NCC(=O)N[C@@H](CCCCN)C(=O)N[C@@H](Cc1c[nH]cn1)C(=O)N[C@@H](CC(C)C)C(=O)N[C@@H](CC(N)=O)C(=O)N[C@@H](CO)C(=O)N[C@@H](CCSC)C(=O)N[C@@H](CCC(=O)O)C(=O)N[C@@H](CCCN=C(N)N)C(=O)N[C@H](C(=O)N[C@H]1CCC(=O)NCCCC[C@@H](C(=O)N[C@@H](CC(C)C)C(=O)N[C@@H](CC(C)C)C(=O)N[C@@H](CCC(N)=O)C(=O)N[C@@H](CC(=O)O)C(=O)N[C@H](C(N)=O)C(C)C)NC(=O)[C@H](CCCN=C(N)N)NC(=O)[C@H](CC(C)C)NC(=O)[C@H](Cc2c[nH]c3ccccc23)NC1=O)C(C)C` [peptide 3, [Leu^27]cyclo(Glu^22-Lys^26)-hPTH-(1-31)-NH2] (H-SVSEIQLMHNLGKHLNSMERVEWLRKLLQDV-NH2; lactam 22-26), the “bioavailability, in words” value in series [1] (subcutaneous, 0.8 nmol/100 g, inferred from time to minimum bp) was “increased bioavailability”. For the same molecule, the 50% effective concentration (EC50) in series [2] (setting [5]) worked out at 3 nM.
In the case of `CC[C@H](C)[C@H](NC(=O)[C@H](CCC(=O)O)NC(=O)[C@H](CO)NC(=O)[C@@H](NC(=O)[C@H](CO)NC(C)=O)C(C)C)C(=O)N[C@@H](CCC(N)=O)C(=O)N[C@@H](CC(C)C)C(=O)N[C@@H](CCSC)C(=O)N[C@@H](Cc1c[nH]cn1)C(=O)N[C@@H](CC(N)=O)C(=O)N[C@@H](CC(C)C)C(=O)NCC(=O)N[C@@H](CCCCN)C(=O)N[C@@H](Cc1c[nH]cn1)C(=O)N[C@@H](CC(C)C)C(=O)N[C@@H](CC(N)=O)C(=O)N[C@@H](CO)C(=O)N[C@@H](CCSC)C(=O)N[C@@H](CCC(=O)O)C(=O)N[C@@H](CCCNC(=N)N)C(=O)N[C@H](C(=O)N[C@H]1CCC(=O)NCCCC[C@@H](C(=O)N[C@@H](CC(C)C)C(=O)N[C@@H](CC(C)C)C(=O)N[C@@H](CCC(N)=O)C(=O)N[C@@H](CC(=O)O)C(=O)N[C@H](C(N)=O)C(C)C)NC(=O)[C@H](CCCNC(=N)N)NC(=O)[C@H](CC(C)C)NC(=O)[C@H](Cc2c[nH]c3ccccc23)NC1=O)C(C)C` [α-acetyl-[Leu^27]cyclo(Glu^22—Lys^26)—hPTH—(1-31)-NH2] (Ac-SVSEIQLMHNLGKHLNSMERVEWLRKLLQDV-NH2; lactam 22-26), the EC50 in series [2] (setting [5]) amounted to 24 nM.
As for SVSEIQLMHNLGKHLNSMERVEWLRKKLQDV-NH2 (lactam 27-30) [cyclo(Lys^27-Asp^30)-hPTH-(1-31)-NH2], the “adenylyl cyclase stimulation, EC50” value in the series with PTH receptor [3] was 40.3 nM. The “Adenylyl Cyclase (EC50)” value with PTH receptor [4] amounted to 40 nM.

B1: [Leu^27]cyclo(Lys^26-Asp^30)-hPTH-(1-31)-NH2 (peptide)
peptide: SVSEIQLMHNLGKHLNSMERVEWLRKLLQDV-NH2
modifications: lactam 26-30; N-terminus assumed
SMILES: CC[C@H](C)[C@H](NC(=O)[C@H](CCC(=O)O)NC(=O)[C@H](CO)NC(=O)[C@@H](NC(=O)[C@@H](N)CO)C(C)C)C(=O)N[C@@H](CCC(N)=O)C(=O)N[C@@H](CC(C)C)C(=O)N[C@@H](CCSC)C(=O)N[C@@H](Cc1c[nH]cn1)C(=O)N[C@@H](CC(N)=O)C(=O)N[C@@H](CC(C)C)C(=O)NCC(=O)N[C@@H](CCCCN)C(=O)N[C@@H](Cc1c[nH]cn1)C(=O)N[C@@H](CC(C)C)C(=O)N[C@@H](CC(N)=O)C(=O)N[C@@H](CO)C(=O)N[C@@H](CCSC)C(=O)N[C@@H](CCC(=O)O)C(=O)N[C@@H](CCCNC(=N)N)C(=O)N[C@H](C(=O)N[C@@H](CCC(=O)O)C(=O)N[C@@H](Cc1c[nH]c2ccccc12)C(=O)N[C@@H](CC(C)C)C(=O)N[C@@H](CCCNC(=N)N)C(=O)N[C@H]1CCCCNC(=O)C[C@@H](C(=O)N[C@H](C(N)=O)C(C)C)NC(=O)[C@H](CCC(N)=O)NC(=O)[C@H](CC(C)C)NC(=O)[C@H](CC(C)C)NC1=O)C(C)C
As to B1, the “adenylyl cyclase stimulation, EC50” value in the series with PTH receptor [3] came out at 17 nM.

B2: [Leu^27]cyclo(Glu^22-Lys^26)-hPTH-(1-31)-NH2 (peptide)
peptide: SVSEIQLMHNLGKHLNSMERVEWLRKLLQDV-NH2
modifications: lactam 22-26; N-terminus assumed
SMILES: CC[C@H](C)[C@H](NC(=O)[C@H](CCC(=O)O)NC(=O)[C@H](CO)NC(=O)[C@@H](NC(=O)[C@@H](N)CO)C(C)C)C(=O)N[C@@H](CCC(N)=O)C(=O)N[C@@H](CC(C)C)C(=O)N[C@@H](CCSC)C(=O)N[C@@H](Cc1c[nH]cn1)C(=O)N[C@@H](CC(N)=O)C(=O)N[C@@H](CC(C)C)C(=O)NCC(=O)N[C@@H](CCCCN)C(=O)N[C@@H](Cc1c[nH]cn1)C(=O)N[C@@H](CC(C)C)C(=O)N[C@@H](CC(N)=O)C(=O)N[C@@H](CO)C(=O)N[C@@H](CCSC)C(=O)N[C@@H](CCC(=O)O)C(=O)N[C@@H](CCCNC(=N)N)C(=O)N[C@H](C(=O)N[C@H]1CCC(=O)NCCCC[C@@H](C(=O)N[C@@H](CC(C)C)C(=O)N[C@@H](CC(C)C)C(=O)N[C@@H](CCC(N)=O)C(=O)N[C@@H](CC(=O)O)C(=O)N[C@H](C(N)=O)C(C)C)NC(=O)[C@H](CCCNC(=N)N)NC(=O)[C@H](CC(C)C)NC(=O)[C@H](Cc2c[nH]c3ccccc23)NC1=O)C(C)C
With B2, the “AC-stimulating activity, EC50” value in the series with PTH receptor [3] was determined as 3.3 nM. The “Adenylyl Cyclase (EC50)” value with PTH receptor [4] was determined as 3 nM.
Turning to SVSEIQLMHNLGKHLNSMERVEWLRKLLQDV-NH2 [[Leu^27]-hPTH-(1-31)-NH2], in the series with PTH receptor [3], the “AC activity in the ROS cell line, EC50” value amounted to 11.5 nM.
